# From patent US20080280862A1, “Methods, compositions, and kits for the treatment of pain” (priority 2007, published 2008)
# What was measured:
# [1] = test system: formalin-induced pain model in rats; experiment: Formalin pain model, nociceptive behaviors; assay type: in vivo, Sprague-Dawley rats; details: Experiment One, amitriptyline
# Protocol: The formalin model is a fast, reliable model used to assess potential analgesics ability to block inflammatory pain. The analgesic effects of test article combinations on pain generation are assayed using the formalin-induced pain model in rats. Adult male Sprague-Dawley rats are administered intraperitoneally study drugs (vehicle, TCA, steroid or TCA/Steroid test article combinations) once daily for 2 days (day −2 and day −1) and 30 minutes prior to the formalin injection day on day 0 (time=0). […] To elicit a pain response, dilute formalin (2% in saline) is injected under the skin of the plantar surface of the right hindpaw. The animal is placed in an observation chamber. The pain response is a characteristic biphasic response pattern of nociceptive behaviors (lifting, licking, and biting of the injected paw). Two distinct periods of nociceptive behaviors/activity are observed and recorded: an early phase (phase I) lasting the first 5-10 min and a late phase (phase II) lasting 20-40 min after the injection of formalin. One hour of data is collected (time spent displaying pain behavior) by a blinded observer using a stopwatch. Results are expressed as the number of pain behaviors per 5 minute periods (Table 8 and Table 9).
# [2] = test system: acetic acid-induced pain model in mice; experiment: Acetic acid pain model, writhes; assay type: in vivo, ICR mice
# Protocol: The acetic acid is a reliable fast model for noxious/visceral pain usually used for screening potential drug candidates for their analgesic activity. The effects of test article combinations on pain generation are assayed using the acetic acid-induced pain model in mice. Adult male ICR mice are administered study drugs intraperitoneally (vehicle, TCA, steroid or TCA/Steroid test article combinations) once daily for 2 days (day −2 and day −1) and 30 minutes prior to the acetic acid injection on day 0 (time=0). […] To elicit a pain response, dilute acetic acid (10 ml/kg of 0.6% solution) is injected intraperitoneally into the abdomen. The animal is placed in an observation chamber, and 5 minutes after acetic acid administration, the number of writhes is counted and recorded over a five minute period by a blinded observer. A writhe is considered as a contraction of the abdominal muscles accompanied by an elongation of the body and extension of the hind limb. Results are expressed as number of writhes.
compound,measurement,setting,value
CN(C)CCC=C1c2ccccc2CCc2ccccc21 [Amitriptyline],Mean number of behaviors per 5 minute block,"[1]; 1 mg/kg, 5 minutes",233.0 ± 10.0
same,Mean number of behaviors per 5 minute block,"[1]; 1 mg/kg, 10 minutes",52.0 ± 23
same,Mean number of behaviors per 5 minute block,"[1]; 1 mg/kg, 15 minutes",84.0 ± 28.0
same,Mean number of behaviors per 5 minute block,"[1]; 1 mg/kg, 20 minutes",49.0 ± 39.0
same,Mean number of behaviors per 5 minute block,"[1]; 1 mg/kg, 25 minutes",228.0 ± 31.0
same,Mean number of behaviors per 5 minute block,"[1]; 1 mg/kg, 30 minutes",244.0 ± 19.0
same,Mean number of behaviors per 5 minute block,"[1]; 1 mg/kg, 35 minutes",240.0 ± 17.0
same,Mean number of behaviors per 5 minute block,"[1]; 1 mg/kg, 40 minutes",214.0 ± 27.0
same,Mean number of behaviors per 5 minute block,"[1]; 1 mg/kg, 45 minutes",167.0 ± 31.0
same,Mean number of behaviors per 5 minute block,"[1]; 1 mg/kg, 50 minutes",63.0 ± 23.0
same,Mean number of behaviors per 5 minute block,"[1]; 1 mg/kg, 55 minutes",39.0 ± 21.0
same,Mean number of behaviors per 5 minute block,"[1]; 1 mg/kg, 60 minutes",28.0 ± 23.0
same,Mean number of behaviors per 5 minute block,"[1]; 3 mg/kg, 5 minutes",206.0 ± 16.2
same,Mean number of behaviors per 5 minute block,"[1]; 3 mg/kg, 10 minutes",59.0 ± 23.2
same,Mean number of behaviors per 5 minute block,"[1]; 3 mg/kg, 15 minutes",64.0 ± 21.6
same,Mean number of behaviors per 5 minute block,"[1]; 3 mg/kg, 20 minutes",166.0 ± 36.7
same,Mean number of behaviors per 5 minute block,"[1]; 3 mg/kg, 25 minutes",229.0 ± 29.4
same,Mean number of behaviors per 5 minute block,"[1]; 3 mg/kg, 30 minutes",242.0 ± 27.6
same,Mean number of behaviors per 5 minute block,"[1]; 3 mg/kg, 35 minutes",210.0 ± 35.9
same,Mean number of behaviors per 5 minute block,"[1]; 3 mg/kg, 40 minutes",242.0 ± 30.3
same,Mean number of behaviors per 5 minute block,"[1]; 3 mg/kg, 45 minutes",174.0 ± 36.0
same,Mean number of behaviors per 5 minute block,"[1]; 3 mg/kg, 50 minutes",119.0 ± 45.0
same,Mean number of behaviors per 5 minute block,"[1]; 3 mg/kg, 55 minutes",73.0 ± 36.6
same,Mean number of behaviors per 5 minute block,"[1]; 3 mg/kg, 60 minutes",47.0 ± 26.9
same,Mean number of behaviors per 5 minute block,"[1]; 10 mg/kg, 5 minutes",217.0 ± 18.1
same,Mean number of behaviors per 5 minute block,"[1]; 10 mg/kg, 10 minutes",16.0 ± 8.8
same,Mean number of behaviors per 5 minute block,"[1]; 10 mg/kg, 15 minutes",45.0 ± 24.1
same,Mean number of behaviors per 5 minute block,"[1]; 10 mg/kg, 20 minutes",84.0 ± 39.0
same,Mean number of behaviors per 5 minute block,"[1]; 10 mg/kg, 25 minutes",128.0 ± 41.0
same,Mean number of behaviors per 5 minute block,"[1]; 10 mg/kg, 30 minutes",151.0 ± 40.9
same,Mean number of behaviors per 5 minute block,"[1]; 10 mg/kg, 35 minutes",152.0 ± 41.1
same,Mean number of behaviors per 5 minute block,"[1]; 10 mg/kg, 40 minutes",138.0 ± 39.4
same,Mean number of behaviors per 5 minute block,"[1]; 10 mg/kg, 45 minutes",67.0 ± 26.7
same,Mean number of behaviors per 5 minute block,"[1]; 10 mg/kg, 50 minutes",70.0 ± 27.8
same,Mean number of behaviors per 5 minute block,"[1]; 10 mg/kg, 55 minutes",42.0 ± 13.8
same,Mean number of behaviors per 5 minute block,"[1]; 10 mg/kg, 60 minutes",45.0 ± 25.2
same,Mean number of behaviors per 5 minute block,"[1]; 20 mg/kg, 5 minutes",168.0 ± 24.3
same,Mean number of behaviors per 5 minute block,"[1]; 20 mg/kg, 10 minutes",41.0 ± 22.4
same,Mean number of behaviors per 5 minute block,"[1]; 20 mg/kg, 15 minutes",1.0 ± 0.9
same,Mean number of behaviors per 5 minute block,"[1]; 20 mg/kg, 20 minutes",13.0 ± 10.2
same,Mean number of behaviors per 5 minute block,"[1]; 20 mg/kg, 25 minutes",32.0 ± 13.7
same,Mean number of behaviors per 5 minute block,"[1]; 20 mg/kg, 30 minutes",81.0 ± 34.3
same,Mean number of behaviors per 5 minute block,"[1]; 20 mg/kg, 35 minutes",93.0 ± 41.3
same,Mean number of behaviors per 5 minute block,"[1]; 20 mg/kg, 40 minutes",85.0 ± 37.2
same,Mean number of behaviors per 5 minute block,"[1]; 20 mg/kg, 45 minutes",99.0 ± 34.0
same,Mean number of behaviors per 5 minute block,"[1]; 20 mg/kg, 50 minutes",82.0 ± 33.8
same,Mean number of behaviors per 5 minute block,"[1]; 20 mg/kg, 55 minutes",66.0 ± 36.8
same,Mean number of behaviors per 5 minute block,"[1]; 20 mg/kg, 60 minutes",59.0 ± 31.1
same,Mean # of writhes per 5 minutes ± SEM,[2]; 1 mg/kg ip,8.71 ± 2.44
same,Mean # of writhes per 5 minutes ± SEM,[2]; 3 mg/kg ip,11.62 ± 2.94
same,Mean # of writhes per 5 minutes ± SEM,[2]; 5 mg/kg ip,4.50 ± 2.04
same,Mean # of writhes per 5 minutes ± SEM,[2]; 10 mg/kg ip,0.79 ± 0.79
